Measurements: BigSolDB 2.1

CC(=O)Nc1ccc(C(=O)O)cc1
Settings	solubility (mole fraction)
in 1,4-dioxane, 288.15 K	0.00281
in 1,4-dioxane, 293.15 K	0.00326
in 1,4-dioxane, 298.15 K	0.00345
in 1,4-dioxane, 303.15 K	0.00394
in 1,4-dioxane, 308.15 K	0.00446
in 1,4-dioxane, 313.15 K	0.00491
in 1,4-dioxane, 318.15 K	0.00577
in 1,4-dioxane, 323.15 K	0.00639
in 1,4-dioxane, 328.15 K	0.00698
in acetic acid, 293.15 K	0.00404
in acetic acid, 298.15 K	0.00486
in acetic acid, 303.15 K	0.00554
in acetic acid, 308.15 K	0.00625
in acetic acid, 313.15 K	0.007
in acetic acid, 318.15 K	0.00782
in acetic acid, 323.15 K	0.00894
in acetic acid, 328.15 K	0.00963
in acetic acid, 333.15 K	0.0111
in acetone, 283.15 K	0.00302
in acetone, 288.15 K	0.00338
in acetone, 293.15 K	0.00384
in acetone, 298.15 K	0.00454
in acetone, 303.15 K	0.00538
in acetone, 308.15 K	0.00635
in acetone, 313.15 K	0.00709
in acetone, 318.15 K	0.00804
in acetone, 323.15 K	0.00913
in acetonitrile, 283.15 K	0.000293
in acetonitrile, 288.15 K	0.000405
in acetonitrile, 293.15 K	0.000433
in acetonitrile, 298.15 K	0.000515
in acetonitrile, 303.15 K	0.000653
in acetonitrile, 308.15 K	0.000803
in acetonitrile, 313.15 K	0.000943
in acetonitrile, 318.15 K	0.00107
in acetonitrile, 323.15 K	0.00132
in ethanol, 283.15 K	0.00586
in ethanol, 288.15 K	0.00674
in ethanol, 293.15 K	0.0075
in ethanol, 298.15 K	0.00834
in ethanol, 303.15 K	0.00921
in ethanol, 308.15 K	0.0101
in ethanol, 313.15 K	0.0114
in ethanol, 318.15 K	0.0126
in ethanol, 323.15 K	0.014
in isobutanol, 283.15 K	0.00351
in isobutanol, 288.15 K	0.00456
in isobutanol, 293.15 K	0.00519
in isobutanol, 298.15 K	0.00601
in isobutanol, 303.15 K	0.00696
in isobutanol, 308.15 K	0.00822
in isobutanol, 313.15 K	0.00912
in isobutanol, 318.15 K	0.0103
in isobutanol, 323.15 K	0.0113
in isopropanol, 283.15 K	0.00546
in isopropanol, 288.15 K	0.00663
in isopropanol, 293.15 K	0.00713
in isopropanol, 298.15 K	0.00796
in isopropanol, 303.15 K	0.009
in isopropanol, 308.15 K	0.00986
in isopropanol, 313.15 K	0.011
in isopropanol, 318.15 K	0.012
in isopropanol, 323.15 K	0.0137
in methanol, 283.15 K	0.006
in methanol, 288.15 K	0.00663
in methanol, 293.15 K	0.00738
in methanol, 298.15 K	0.00839
in methanol, 303.15 K	0.00941
in methanol, 308.15 K	0.0103
in methanol, 313.15 K	0.0115
in methanol, 318.15 K	0.0126
in methanol, 323.15 K	0.0141
in n-butanol, 283.15 K	0.00486
in n-butanol, 288.15 K	0.00552
in n-butanol, 293.15 K	0.00599
in n-butanol, 298.15 K	0.00722
in n-butanol, 303.15 K	0.00812
in n-butanol, 308.15 K	0.00974
in n-butanol, 313.15 K	0.0108
in n-butanol, 318.15 K	0.0122
in n-butanol, 323.15 K	0.0136
in n-pentanol, 283.15 K	0.00507
in n-pentanol, 288.15 K	0.00554
in n-pentanol, 293.15 K	0.00607
in n-pentanol, 298.15 K	0.00659
in n-pentanol, 303.15 K	0.00741
in n-pentanol, 308.15 K	0.00844
in n-pentanol, 313.15 K	0.00938
in n-pentanol, 318.15 K	0.0115
in n-pentanol, 323.15 K	0.0138
in n-propanol, 283.15 K	0.0048
in n-propanol, 288.15 K	0.00548
in n-propanol, 293.15 K	0.00608
in n-propanol, 298.15 K	0.007
in n-propanol, 303.15 K	0.00792
in n-propanol, 308.15 K	0.00883
in n-propanol, 313.15 K	0.00986
in n-propanol, 318.15 K	0.0113
in n-propanol, 323.15 K	0.0127
in sec-butanol, 283.15 K	0.00515
in sec-butanol, 288.15 K	0.00602
in sec-butanol, 293.15 K	0.00666
in sec-butanol, 298.15 K	0.00796
in sec-butanol, 303.15 K	0.00936
in sec-butanol, 308.15 K	0.0107
in sec-butanol, 313.15 K	0.0122
in sec-butanol, 318.15 K	0.0136
in sec-butanol, 323.15 K	0.015
